Results from PMC4460047 (PLoS ONE, 2015).
Several values for one entry are separate records, joined by “and”; a condition that tells them apart may be missing. Identical values can stand only once. Marks after values point to notes of the source that are not given here.

What was measured:
[1] = Chemical stability in phosphate buffered saline pH 7.4; type: physicochemical; conditions: for %Compd at 6 h, pH 7.4: percent remaining after 6 h of incubation at 37°C in PBS buffer pH 7.4; for L- and D-aspartate derivatives produced by deamidation at the side chain: buffer pH 7.4, data not shown
Protocol: (§1) The chemical and metabolic stability of PEA and all prodrugs were studied by incubating each compound (5 μL of a […] solution in DMSO, or DMSO as control) with 495 μL of 10 mM phosphate buffered saline pH 7.4 for chemical stability, 80% v/v rat plasma or 20% w/v rat liver homogenate prepared accordingly to previously described procedures for metabolic stability, reaching a final concentration of 50 nm for the test compound.
(§2) Rat plasma and liver samples were pre-incubated at 37°C for 10 min before adding the compounds. After incubation for different time periods (0, 15, 30, 60, 120, 240 and 360 min), samples were deproteinized by adding 100 μL of acetonitrile with 75 nmol L^-1 IS (PEA-d4). The samples were centrifuged (14 000 g, 10 min, 4°C), and the supernatants were analyzed by HPLC–ESI–MS/MS. For each tested compound, a multiple reaction monitoring (MRM) ESI–MS/MS method was set up in order to monitor the relative concentration of compound and released PEA at the different incubation times, compared to the time t = 0, in rat plasma and liver homogenate.

[2] = Stability in 20% w/v rat liver homogenate; type: in vitro ADME; conditions: 37°C; for half-life at 50 nM / remaining at 2 h, 50 nM: rat, 20% w/v rat liver homogenate; for half-life at 50 nM: read-out: Rat Liver Compd t 1/2; for remaining at 2 h, 50 nM: read-out: Percent remaining after 2 h incubation in rat liver homogenate
Protocol: as §1, §2

[3] = Stability and PEA release in 80% v/v rat plasma; type: in vitro ADME; conditions: for half-life at 50 nM: rat, pH 7.4, 80% v/v rat plasma, read-out: Rat Plasma Compd t 1/2; for half-life at 50 nM / Rat Plasma Compd t 1/2: 50 nm compound; for remaining at 6 h, 50 nM: pH 7.4, read-out: Percent remaining after 6 h incubation in rat plasma
Protocol: as §1, §2
Cmax and tmax in rat plasma were read from the raw data as the coordinates of the highest concentration observed. A Thermo TSQ Quantum triple-quadrupole mass spectrometer (Thermo Italia, Milan, Italy) with heated electrospray ionization (H-ESI) ion source was used for mass detection and analysis. Mass spectrometric analyses were done in positive ion mode. H-ESI interface parameters were set as follows: probe middle (D) position; capillary temperature 270°C; spray voltage 3.0 kV. Nitrogen was used as nebulizing gas at the following pressure: sheath gas 35 psi; auxiliary gas 15 arbitrary units (a.u.). Argon was used as the collision gas at a pressure of approximately 1.5 mtorr (1 torr = 133.3 Pa). For quantitative analysis, the following parent ion → product ions transitions were selected: PEA (1): m/z 300.2 → m/z 62.3 (tube lens 60 V; collision energy 19 eV); PEA-d4 (Internal Standard): m/z 304.2 → m/z 66.3 + m/z 287.2 (tube lens 72 V; collision energy 15, 12 eV). MRM transitions, tube lens voltages and collision energies for compounds 3–5, 7–9, 19–24, 26–31, and 33 are reported in the S1 File. […] The coefficients of correlation (r^2) were >0.99 for all curves. The LOQ was 1 nmol mL^−1 for all analytes. Extraction efficiency was determined by comparing the peak area ratio of spiked samples at three concentration levels (low, intermediate, and high) to those of extracted charcoal treated blank plasma spiked with the corresponding concentrations. The mean extraction recovery ranged from 109% to 91% for all compounds. The specificity of the assay was evaluated by comparison of HPLC–ESI–MS/MS chromatograms of the analytes at the LOQ to those of charcoal treated blank plasma samples in triplicate.

[4] = Plasma levels after oral administration to Wistar rats; type: in vivo, rat
Protocol: Twenty-seven male Wistar rats (Charles River Laboratories, Italy), 150–250 g in weight, were used in the study. Number of animals was calculated by G-power a priori analysis (α = 0.05 and β = 0.05). Animals were housed in group in policarbonate cages (Tecniplast, Italy) in a conventional facility with controlled temperature 22±1°C, a relative humidity of 55±5%, and a 12 h light/dark cycle (6:00 am to 6:00 pm). The rats were provided standard pellet diet (4RF21 GLP Mucedola, Italy) and water ad libitum throughout the study. The experiments were started only after acclimatization of animals to the laboratory conditions. Before the experiments, rats were fasted for 18 h, with free access to drinking water. Animals were randomized in three experimental groups (nine animals for each group) receiving respectively L-Val-PEA (20), D-Val-PEA (28) and PEA (1).
The day of the experiments substances were turned into a corn oil suspension, after ultrasound and vortexing and they were administered to rats between 8.00 and 10.00 am by gastric gavage at the equimolar doses of 145 mg kg^-1 for L- and D-Val-PEA (20, 28) and 100 mg kg^-1 of PEA (1). Blood samples were collected via sub-tongue puncture from each anaesthetized rat (2% isofluran in air) to minimize any suffering. Blood samples of 0.2 mL were collected before treatment and at 15, 30, 60, 120, 240, 360 and 480 min post-dosing into EDTA-treated tubes (Sarstedt, Germany), immediately centrifuged (5000 rpm, 10 min, 4°C; refrigerated microcentrifuge Z 216 MK, Hermle LaborTechnik). Resulting plasma was immediately processed by protein precipitation with ice-cold acetonitrile containing the IS 75 nmol L^-1 (PEA-d4) and analyzed as previously described. AUC values were calculated employing the software add-ons of Microsoft Excel.

[5] = p.o., PEA 100 mg kg-1, 20, 28 145 mg kg-1

## CCCCCCCCCCCCCCCC(=O)NCCOC(=O)OCOC(C)=O [compound 3, Acetoxymethyl 2-(palmitoylamino)ethyl carbonate]
[1]
  %Compd at 6 h, pH 7.4: 86 ± 1%
[2]; rat liver homogenate
  half-life at 50 nM: < 1 min
[3]; 80% v/v rat plasma, 37°C
  half-life at 50 nM: < 1 min

## CCCCCCCCCCCCCCCC(=O)NCCOC(=O)OCOC(=O)C(C)C [compound 4, Isobutyroyloxymethyl 2-(palmitoylamino)ethyl carbonate]
[1]
  %Compd at 6 h, pH 7.4: 84 ± 1%
[2]; rat liver homogenate
  half-life at 50 nM: < 1 min
[3]; 80% v/v rat plasma, 37°C
  half-life at 50 nM: 1.1 ± 0.2 min

## CCCCCCCCCCCCCCCC(=O)NCCOC(=O)OCOC(=O)C1CCCCC1 [compound 5, (Cyclohexanelcarboxyloyloxy)methyl 2-(palmitoylamino)ethyl carbonate]
[1]
  %Compd at 6 h, pH 7.4: 84 ± 1%
[2]; rat liver homogenate
  half-life at 50 nM: 1.2 ± 0.2 min
[3]; 80% v/v rat plasma, 37°C
  Rat Plasma Compd t 1/2: 5.1 ± 0.5 min
  half-life at 50 nM: 5 min

## CCCCCCCCCCCCCCCC(=O)NCCOC(=O)NCC(=O)O [compound 7, N-(2-Palmitoylamino-ethyloxy)carbonyl-glycine]
[1]
  %Compd at 6 h, pH 7.4: 101 ± 1%
[2]; rat liver homogenate
  half-life at 50 nM: 23 ± 1 min
[3]; 80% v/v rat plasma, 37°C, 6 h
  remaining at 6 h, 50 nM: 96 ± 4%

## CCCCCCCCCCCCCCCC(=O)NCCOC(=O)N[C@@H](C)C(=O)O [compound 8, N-(2-Palmitoylamino-ethyloxy)carbonyl-L-alanine]
[1]
  %Compd at 6 h, pH 7.4: 103 ± 3%
[2]; rat liver homogenate
  half-life at 50 nM: 29 ± 3 min
[3]; 80% v/v rat plasma, 37°C, 6 h
  remaining at 6 h, 50 nM: 96 ± 2%

## CCCCCCCCCCCCCCCC(=O)NCCOC(=O)N[C@H](C(=O)O)C(C)C [compound 9, N-(2-Palmitoylamino-ethyloxy)carbonyl-L-valine]
[1]
  %Compd at 6 h, pH 7.4: 99 ± 1%
[2]; 2 h
  remaining at 2 h, 50 nM: 92 ± 5%
[3]; 80% v/v rat plasma, 37°C, 6 h
  remaining at 6 h, 50 nM: 98 ± 1%

## CCCCCCCCCCCCCCCC(=O)NCCOC(=O)[C@H](C)N.Cl [compound 19, 2-(palmitoylamino)ethyl L-alaninate hydrochloride]
[1]
  %Compd at 6 h, pH 7.4: 64 ± 5%
[2]; rat liver homogenate
  Rat Liver Compd t 1/2: 1.4 ± 0.5 min
  half-life at 50 nM: ~1 min
[3]; 80% v/v rat plasma, 37°C
  half-life at 50 nM: ~1 min

## CCCCCCCCCCCCCCCC(=O)NCCOC(=O)[C@@H](N)C(C)C.Cl [compound 20, 2-(palmitoylamino)ethyl L-valinate hydrochloride]
[1]
  %Compd at 6 h, pH 7.4: 91 ± 2%
[4]; male, Wistar, rat, plasma, po, administered compound, p.o., mean±SEM, n = 9, read-out: AUC0- 480 (converted)
  AUC(0-t): 129 ng·h/mL
[4]; male, rat, plasma, po, p.o. 145 mg kg-1, Wistar rats, mean ± SEM, n = 9, read-out: Prodrug Conc in plasma, 15 min
  concentration at 15 min: 612 nM
[4]; male, rat, plasma, po, p.o. 145 mg kg-1, Wistar rats, mean ± SEM, n = 9, read-out: Prodrug Conc in plasma, 30 min
  concentration at 30 min: 212 nM
[4]; male, rat, plasma, po, p.o. 145 mg kg-1, Wistar rats, mean ± SEM, n = 9, read-out: Prodrug Conc in plasma, 60 min
  concentration at 60 min: 35.8 nM
[4]; male, rat, plasma, po, p.o. 145 mg kg-1, Wistar rats, mean ± SEM, n = 9, read-out: Prodrug Conc in plasma, 120 min
  concentration at 120 min: 22.2 nM
[4]; male, rat, plasma, po, p.o. 145 mg kg-1, Wistar rats, mean ± SEM, n = 9, read-out: Prodrug Conc in plasma, 240 min
  concentration at 240 min: 7.1 nM
[4]; male, rat, plasma, po, p.o. 145 mg kg-1, Wistar rats, mean ± SEM, n = 9, read-out: Prodrug Conc in plasma, 360 min
  concentration at 360 min: 2.7 nM
[4]; male, rat, plasma, po, p.o. 145 mg kg-1, Wistar rats, mean ± SEM, n = 9, read-out: Prodrug Conc in plasma, 480 min
  concentration at 480 min: 9.3 nM
[4]; [5]
  Cmax of administered compound in rat plasma: 612 nm
  Time of Cmax of administered compound in rat plasma: 15 min
[2]; rat liver homogenate
  half-life at 50 nM: 26 ± 1 min
[3]; rat plasma
  Increase in plasma half-life relative to L-Ala-PEA: 46 fold
[3]; 80% v/v rat plasma, 37°C
  half-life at 50 nM: 46 ± 3 min

## CCCCCCCCCCCCCCCC(=O)NCCOC(=O)[C@@H](N)[C@@H](C)CC.Cl [compound 21, 2-(Palmitoylamino)ethyl L-isoleucinate hydrochloride]
[1]
  %Compd at 6 h, pH 7.4: 103 ± 6%
[2]; 2 h
  remaining at 2 h, 50 nM: 65 ± 5%
[3]; rat plasma
  Increase in plasma half-life relative to L-Ala-PEA: 200 fold
[3]; 80% v/v rat plasma, 37°C
  half-life at 50 nM: 205 ± 16 min

## CCCCCCCCCCCCCCCC(=O)NCCOC(=O)[C@@H](N)Cc1c[nH]c2ccccc12.Cl [compound 22, 2-(Palmitoylamino)ethyl L-tryptophanate hydrochloride]
[1]
  %Compd at 6 h, pH 7.4: 96 ± 1%
[2]; rat liver homogenate
  half-life at 50 nM: ~36 min
[3]; 80% v/v rat plasma, 37°C
  Rat Plasma Compd t 1/2: 4.5 ± 0.5 min
  half-life at 50 nM: ~5 min

## CCCCCCCCCCCCCCCC(=O)NCCOC(=O)[C@@H](N)CC(N)=O.Cl [compound 23, 2-(Palmitoylamino)ethyl L-asparaginate hydrochloride]
[1]
  L- and D-aspartate derivatives produced by deamidation at the side chain: about 1%
  %Compd at 6 h, pH 7.4: 3% and 3.3 ± 0.3%
[1]; phosphate buffered saline, pH 7.4, read-out: t 1/2 in buffered solution at pH 7.4
  half-life at 50 nM: ~3.3 min
[2]; rat liver homogenate
  half-life at 50 nM: 24 ± 1 min
[3]; 80% v/v rat plasma, 37°C
  half-life at 50 nM: ~9 min

## CCCCCCCCCCCCCCCC(=O)NCCOC(=O)[C@@H](N)CCC(N)=O.Cl [compound 24, 2-(Palmitoylamino)ethyl L-glutaminate hydrochloride]
[1]
  %Compd at 6 h, pH 7.4: 61 ± 3%
[2]; rat liver homogenate
  half-life at 50 nM: ~80 min
[3]; 80% v/v rat plasma, 37°C
  half-life at 50 nM: 18 ± 1 min

## CCCCCCCCCCCCCCCC(=O)NCCOC(=O)[C@@H](N)CC(=O)O.Cl [compound 26, 1-(2-(Palmitoylamino)ethyl) L-aspartate hydrochloride]
[1]
  %Compd at 6 h, pH 7.4: 85 ± 4%
[2]; 2 h
  remaining at 2 h, 50 nM: 66 ± 5%
[3]; 80% v/v rat plasma, 37°C
  half-life at 50 nM: 172 ± 2 min

## CCCCCCCCCCCCCCCC(=O)NCCOC(=O)[C@H](N)CC(N)=O.Cl [compound 27, 2-(Palmitoylamino)ethyl D-asparaginate hydrochloride]
[1]
  L- and D-aspartate derivatives produced by deamidation at the side chain: about 1%
  %Compd at 6 h, pH 7.4: 3.5 ± 0.3%
[2]; rat liver homogenate
  half-life at 50 nM: 55 ± 4 min
[3]; 80% v/v rat plasma, 37°C
  half-life at 50 nM: 14 ± 1 min

## CCCCCCCCCCCCCCCC(=O)NCCOC(=O)C[C@H](N)C(=O)O.Cl [compound 29, 4-(2-(Palmitoylamino)ethyl) L-aspartate hydrochloride]
[1]
  %Compd at 6 h, pH 7.4: 83 ± 3%
[2]; rat liver homogenate
  half-life at 50 nM: 21 ± 1 min
[3]; 80% v/v rat plasma, 37°C
  half-life at 50 nM: 262 ± 35 min

## CCCCCCCCCCCCCCCC(=O)N[C@H](C)CO [compound 31, (R)-α-methyl-PEA]
[1]
  %Compd at 6 h, pH 7.4: 95 ± 2%
[2]; 2 h
  remaining at 2 h, 50 nM: 87 ± 1%
[3]; 80% v/v rat plasma, 37°C, 6 h
  remaining at 6 h, 50 nM: 82 ± 4%

## CCCCCCCCCCCCCCCC(=O)N[C@H](C)COC(=O)[C@@H](N)C(C)C.Cl [compound 33, (2R)-2-(palmitoylamino)propyl L-valinate hydrochloride]
[1]
  %Compd at 6 h, pH 7.4: 93 ± 4%
[2]; rat liver homogenate
  half-life at 50 nM: 38 min
[3]; rat plasma
  Rat plasma half-life relative to L-Val-PEA (20): 4 fold
[3]; 80% v/v rat plasma, 37°C
  half-life at 50 nM: 190 ± 3 min

## (S)-α-methyl-PEA [compound 30]
[1]
  %Compd at 6 h, pH 7.4: 96 ± 3%
[2]; 2 h
  Percent remaining after 2 h incubation in rat liver homogenate: 79 ± 6% ^f
[3]; 80% v/v rat plasma, 37°C, 6 h
  Percent remaining after 6 h incubation in rat plasma: 80 ± 4% ^e
